According to ChEMBL document CHEMBL4814006, “Novel amino substituted tetracyclic imidazo[4,5-b]pyridine derivatives: Design, synthesis, antiproliferative activity and DNA/RNA binding study” (Eur J Med Chem, 2021):
Values belong to the molecule of their own block, whether it stands above or below them. Active and inactive are the calls of the source. The calls are words filed in the database; no cut-off is given here.

What was measured:
HCT-116 = assay: Antiproliferative activity against human HCT-116 cells assessed as inhibition of cell growth incubated for 72 hrs by MTT assay; type: functional, cell-based; settings: HCT-116, 72 h
NCI-H460 = assay: Antiproliferative activity against human NCI-H460 cells assessed as inhibition of cell growth incubated for 72 hrs by MTT assay; type: functional, cell-based; settings: NCI-H460, 72 h
MCF7 = assay: Antiproliferative activity against human MCF7 cells assessed as inhibition of cell growth incubated for 72 hrs by MTT assay; type: functional, cell-based; settings: MCF7, 72 h
HEK293 = assay: Cytotoxicity against human HEK293 cells assessed as inhibition of cell growth incubated for 72 hrs by MTT assay; type: cell-based; settings: HEK293, 72 h
Calf thymus DNA [1] = assay: Binding affinity to calf thymus DNA assessed as binding constant in sodium cacodylate buffer at pH 7 by fluorescence spectroscopy; settings: Bos taurus
Calf thymus DNA [2] = assay: Binding affinity to calf thymus DNA assessed as ratio of bound compound to polynucleotide phosphate in sodium cacodylate buffer at pH 7 by fluorescence spectroscopy based Scatchard analysis; settings: Bos taurus
Calf thymus DNA [3] = assay: Binding affinity to calf thymus DNA assessed as ratio of fluorescence intensity of compound-polynucleotide complex to fluorescence intensity of compound in sodium cacodylate buffer at pH 7 by fluorescence spectroscopy based Scatchard method; settings: Bos taurus
[4] = test system: Poly(dA-dU)oligonucleotide; assay: Binding affinity to polyA-polyU RNA (unknown origin) assessed as binding constant in sodium cacodylate buffer at pH 7 by fluorescence spectroscopy; type: nucleic-acid assay
[5] = test system: Poly(dA-dU)oligonucleotide; assay: Binding affinity to polyA-polyU RNA (unknown origin) assessed as ratio of bound compound to polynucleotide phosphate in sodium cacodylate buffer at pH 7 by fluorescence spectroscopy based Scatchard method; type: nucleic-acid assay
[6] = test system: Poly(dA-dU)oligonucleotide; assay: Binding affinity to polyA-polyU RNA (unknown origin) assessed as ratio of fluorescence intensity of compound-polynucleotide complex to fluorescence intensity of compound in sodium cacodylate buffer at pH 7 by fluorescence spectroscopy based Scatchard method; type: nucleic-acid assay
[7] = test system: Poly(dA-dT)oligonucleotide; assay: Binding affinity to poly(dAdT)2 DNA (unknown origin) assessed as binding constant in sodium cacodylate buffer at pH 7 by fluorescence spectroscopy; type: nucleic-acid assay
[8] = test system: Poly(dA-dT)oligonucleotide; assay: Binding affinity to poly(dAdT)2 DNA (unknown origin) assessed as ratio of bound compound to polynucleotide phosphate in sodium cacodylate buffer at pH 7 by fluorescence spectroscopy based Scatchard method; type: nucleic-acid assay
[9] = test system: Poly(dA-dT)oligonucleotide; assay: Binding affinity to poly(dAdT)2 DNA (unknown origin) assessed as ratio of fluorescence intensity of compound-polynucleotide complex to fluorescence intensity of compound in sodium cacodylate buffer at pH 7 by fluorescence spectroscopy based Scatchard method; type: nucleic-acid assay
[10] = test system: Poly(dG-dC)oligonucleotide; assay: Binding affinity to poly(dGdC)2 DNA (unknown origin) assessed as binding constant in sodium cacodylate buffer at pH 7 by fluorescence spectroscopy; type: nucleic-acid assay
[11] = test system: Poly(dG-dC)oligonucleotide; assay: Binding affinity to poly(dGdC)2 DNA (unknown origin) assessed as ratio of bound compound to polynucleotide phosphate in sodium cacodylate buffer at pH 7 by fluorescence spectroscopy based Scatchard method; type: nucleic-acid assay
[12] = test system: Poly(dG-dC)oligonucleotide; assay: Binding affinity to poly(dGdC)2 DNA (unknown origin) assessed as ratio of fluorescence intensity of compound-polynucleotide complex to fluorescence intensity of compound in sodium cacodylate buffer at pH 7 by fluorescence spectroscopy based Scatchard method; type: nucleic-acid assay
Calf thymus DNA [13] = assay: Binding affinity to calf thymus DNA assessed as change in melting temperature in sodium cacodylate buffer at pH 7 at compound:polynucleotide concentration ratio of 0.3 by UV/Vis spectrophotometric analysis; type: nucleic-acid assay; settings: Bos taurus
[14] = test system: Poly(dA-dU)oligonucleotide; assay: Binding affinity to polyA-polyU RNA (unknown origin) assessed as change in melting temperature in sodium cacodylate buffer at pH 7 at compound:polynucleotide concentration ratio of 0.3 by UV/vis spectrophotometric analysis; type: nucleic-acid assay
[15] = test system: Poly(dA-dT)oligonucleotide; assay: Binding affinity to poly(dAdT)2 DNA (unknown origin) assessed as change in melting temperature in sodium cacodylate buffer at pH 7 at compound:polynucleotide concentration ratio of 0.3 by UV/Vis spectrophotometric analysis; type: nucleic-acid assay
Quadruplex DNA [16] = assay: Binding affinity to human Tel22 G quadruplex DNA assessed as binding constant in sodium cacodylate buffer at pH 7 at binding stoichiometry ratio of 1:1 by fluorescence spectroscopy; type: nucleic-acid assay
Quadruplex DNA [17] = assay: Binding affinity to human Tel22 G quadruplex DNA assessed as ratio of fluorescence intensity of compound-polynucleotide complex to fluorescence intensity of compound in sodium cacodylate buffer at pH 7 at binding stoichiometry ratio of 1:1 by fluorescence spectroscopy; type: nucleic-acid assay
Quadruplex DNA [18] = assay: Binding affinity to human Tel22 G quadruplex DNA assessed as change in melting temperature in sodium cacodylate buffer at pH 7 by UV/Vis spectrophotometric analysis; type: nucleic-acid assay
[19] = test system: Poly(dA-dT)oligonucleotide; assay: Binding affinity to poly(dAdT)2 DNA (unknown origin) in sodium cacodylate buffer at pH 7 by CD spectroscopy; type: nucleic-acid assay
[20] = test system: Poly(dG-dC)oligonucleotide; assay: Binding affinity to poly(dGdC)2 DNA (unknown origin) in sodium cacodylate buffer at pH 7 by CD spectroscopy; type: nucleic-acid assay
[21] = test system: Poly(dA-dU)oligonucleotide; assay: Binding affinity to polyA-polyU RNA (unknown origin) in sodium cacodylate buffer at pH 7 by CD spectroscopy; type: nucleic-acid assay
Quadruplex DNA [22] = assay: Binding affinity to human Tel22 G quadruplex DNA in sodium cacodylate buffer at pH 7 by CD spectroscopy; type: nucleic-acid assay

Structure (SMILES): N#Cc1cc2ccc(N3CCNCC3)cc2n2c1nc1cccnc12
- IC50 (HCT-116): 400 nM
- IC50 (NCI-H460): 400 nM
- IC50 (MCF7): 400 nM
- IC50 (HEK293): 700 nM

Structure (SMILES): CC(C)CNc1ccc2c(NCC(C)C)c(C#N)c3nc4cccnc4n3c2c1
- IC50 (HCT-116): 3000 nM
- IC50 (NCI-H460): 5400 nM
- IC50 (MCF7): 1800 nM

Structure (SMILES): N#Cc1cc2ccc(N3CCCCC3)cc2n2c1nc1ncccc12
- IC50 (HCT-116): 10000 nM
- IC50 (NCI-H460): 49000 nM
- IC50 (MCF7): 5000 nM

Structure (SMILES): N#Cc1c(N2CCNCC2)c2ccccc2n2c1nc1cccnc12
- IC50 (HCT-116): 3600 nM
- IC50 (NCI-H460): 1800 nM
- IC50 (MCF7): 4700 nM

Structure (SMILES): N#Cc1cc2ccc(N3CCCCC3)cc2n2c1nc1cccnc12
- IC50 (HCT-116): 5500 nM
- IC50 (NCI-H460): ≥ 100000 nM
- IC50 (MCF7): 3000 nM

Structure (SMILES): N#Cc1c(N2CCCCC2)c2ccc(N3CCCCC3)cc2n2c1nc1cccnc12
- IC50 (HCT-116): 1000 nM
- IC50 (NCI-H460): ≥ 100000 nM
- IC50 (MCF7): 500 nM
- IC50 (HEK293): > 100000 nM

Structure (SMILES): CN(C)CCCNc1ccc2cc(C#N)c3nc4cccnc4n3c2c1
- IC50 (HCT-116): 400 nM
- IC50 (NCI-H460): 400 nM
- IC50 (MCF7): 700 nM
- IC50 (HEK293): 300 nM
- log Ks (Calf thymus DNA [1]): 5.5
- Ratio (Calf thymus DNA [2]): 0.6
- Ratio (Calf thymus DNA [3]): 0.5
- log Ks [4]: 6.3
- Ratio [5]: 0.1
- Ratio [6]: 0.8
- log Ks [7]: 6.9
- Ratio [8]: 0.2
- Ratio [9]: 0.7
- log Ks [10]: 5.8
- Ratio [11]: 0.2
- Ratio [12]: 0.4
- ΔTm (Calf thymus DNA [13]): 6.6 °C
- ΔTm [14]: 9.5 °C
- ΔTm [15]: 18.2 °C
- log Ks (Quadruplex DNA [16]): 5.48
- Ratio (Quadruplex DNA [17]): 0.7
- ΔTm (Quadruplex DNA [18]): 1.9 °C
- Activity [19]: Active
- Activity [20]: Active
- Activity [21]: Active
- Activity (Quadruplex DNA [22]): Active

Other lines, results leading:

- IC50 (HCT-116): 3000 nM
- IC50 (NCI-H460): ≥ 100000 nM
- IC50 (MCF7): 6000 nM
Structure (SMILES): N#Cc1c(Cl)c2ccccc2n2c1nc1cccnc12

- IC50 (HCT-116): 3500 nM
- IC50 (NCI-H460): 7000 nM
- IC50 (MCF7): 3000 nM
Structure (SMILES): N#Cc1c(N2CCNCC2)c2ccccc2n2c1nc1ncccc12

- IC50 (HCT-116): 3000 nM
- IC50 (NCI-H460): ≥ 100000 nM
- IC50 (MCF7): 2000 nM
Structure (SMILES): N#Cc1c(Cl)c2ccc(F)cc2n2c1nc1cccnc12

- IC50 (HCT-116): 900 nM
- IC50 (NCI-H460): 7000 nM
- IC50 (MCF7): 3100 nM
Structure (SMILES): N#Cc1cc2ccc(N3CCNCC3)cc2n2c1nc1ncccc12

- IC50 (HCT-116): 3500 nM
- IC50 (NCI-H460): ≥ 100000 nM
- IC50 (MCF7): 2000 nM
Structure (SMILES): N#Cc1c(Cl)c2ccc(F)cc2n2c1nc1ncccc12

- IC50 (HCT-116): 5000 nM
- IC50 (NCI-H460): ≥ 100000 nM
- IC50 (MCF7): ≥ 100000 nM
Structure (SMILES): N#Cc1cc2ccc(F)cc2n2c1nc1cccnc12
